Assays:
Type in all cases: in vivo
Set-up in all cases: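 grade 0 to 5 of growth suppression where 5 is 90% or more and 0 below 10%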
[1] = test system: Echinochloa oryzicola Vasing; experiment: Herbicidal effects in paddy field soil treatment (Test Example 1); details: paddy field soil treatment; 1000 g of the active ingredient per hectare; wettable powder added dropwise on water surface; 21st day after treatment
Method in brief: (§1)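 Sow seeds in puddled, leveled paddy soil; waterlog to 3 cm depth. On the following day apply water-diluted wettable powder onto the water surface (1000 g a.i./ha). Grow in greenhouse and assess herbicidal effect at day 21.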

[2] = test system: Monochoria vaginalis (Burm. f.) Presl var. plantaginea (Roxb.) Solms-Laub.; experiment: as above; details: paddy field soil treatment; 1000 g of the active ingredient per hectare; wettable powder added dropwise on water surface; 21st day after treatment
Method in brief: as §1

[3] = test system: Scirpus juncoides Roxb. var. ohwianus. T. Koyama; experiment: as above; details: paddy field soil treatment; 1000 g of the active ingredient per hectare; wettable powder added dropwise on water surface; 21st day after treatment
Method in brief: as §1

[4] = test system: Abutilon theophrasti medicus; experiment: Herbicidal effects in upland field soil treatment (Test Example 2); details: 1000 g active ingredient per hectare, 21st day after treatment, criteria of Table 138
Method in brief: (§2)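 Upland soil, seeds sown and covered → diluted WP sprayed uniformly onto soil surface (1000 L/ha; 1000 g a.i./ha) → greenhouse → effect scored day 21.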

[5] = test system: Amaranthus viridis L.; experiment: as above; details: 1000 g active ingredient per hectare, 21st day after treatment, criteria of Table 138
Method in brief: as §2

[6] = test system: Abutilon theophrasti medicus; experiment: Herbicidal effects in upland field foliar treatment (Test Example 3); details: criteria of Table 138; for herbicidal effect (index) on Abutilon theophrasti medicus: 1000 g active ingredient per hectare, 14th day after treatment; for herbicidal effects on Abutilon theophrasti medicus: 1000 g of the active ingredient per hectare, 14th day after the treatment, wettable powder
Method: (§3) Test Example 3 Test on Herbicidal Effects in Upland Field Foliar Treatment A 80-cm^2 plastic pot was filled with upland field soil. Seeds of Echinochloa crus-galli (L.) P. Beauv. var. crus-galli, Abutilon theophrasti medicus and Amaranthus viridis L. were sowed, and the plants were grown for two weeks in a greenhouse. A wettable powder formulation prepared according to Preparation Example 1 was diluted with water, and was sprayed with a small sprayer to perform foliar application over the entirety of plants from the upper side, in an amount equivalent to 1000 liters per hectare, such that 1000 g of the active ingredient per hectare was applied. Thereafter, the plants were grown in a greenhouse, and on the 14th day after the treatment, the herbicidal effects were investigated according to the criteria described in the Table 138 shown above.

[7] = test system: Amaranthus viridis L.; experiment: as above; details: criteria of Table 138; for herbicidal effect (index) on Amaranthus viridis L.: 1000 g active ingredient per hectare, 14th day after treatment; for herbicidal effects on Amaranthus viridis L.: 1000 g of the active ingredient per hectare, 14th day after the treatment, wettable powder
Method: as §3

[8] = test system: Echinochloa crus-galli (L.) P. Beauv. var. crus-galli; experiment: as above; details: criteria of Table 138; for herbicidal effect (index) on Echinochloa crus-galli (L.) P. Beauv. var. crus-galli: 1000 g active ingredient per hectare, 14th day after treatment; for herbicidal effects on Echinochloa crus-galli (L.) P. Beauv. var. crus-galli: 1000 g of the active ingredient per hectare, 14th day after the treatment, wettable powder
Method: as §3

Row | Structure (SMILES) | Herbicidal effects index, Echinochloa oryzicola Vasing [1] | Herbicidal effects index, Monochoria vaginalis (Burm. f.) Presl var. plantaginea (Roxb.) Solms-Laub. [2] | Herbicidal effects index, Scirpus juncoides Roxb. var. ohwianus. T. Koyama [3] | herbicidal effect (index) on Abutilon theophrasti medicus [4] | herbicidal effect (index) on Amaranthus viridis L. [5] | herbicidal effect (index) on Abutilon theophrasti medicus [6] | herbicidal effect (index) on Amaranthus viridis L. [7] | herbicidal effect (index) on Echinochloa crus-galli (L.) P. Beauv. var. crus-galli [8] | herbicidal effects on Abutilon theophrasti medicus [6] | herbicidal effects on Amaranthus viridis L. [7] | herbicidal effects on Echinochloa crus-galli (L.) P. Beauv. var. crus-galli [8]
1 | CCn1c(=O)c(C(=O)C2=C(O)CCCC2=O)nc2ccccc21 [Compound I-7] | 5 | 5 | 5 | 5 | 5 | 5 | 5 | 4 |  |  | 
2 | CCCn1c(=O)c(C(=O)C2=C(O)CCCC2=O)nc2ccccc21 [Compound I-12] | 5 | 5 | 5 | 5 | 5 | 5 | 5 | 4 |  |  | 
3 | CC(C)n1c(=O)c(C(=O)C2=C(O)CCCC2=O)nc2ccccc21 [Compound I-13] | 5 | 5 | 5 | 5 | 5 | 5 | 5 | 5 |  |  | 
4 | O=C1CCCC(O)=C1C(=O)c1nc2ccccc2n(C2CC2)c1=O [Compound I-14] | 4 | 5 | 5 | 5 | 5 | 5 | 5 | 4 |  |  | 
5 | CCCCn1c(=O)c(C(=O)C2=C(O)CCCC2=O)nc2ccccc21 [Compound I-15] | 5 | 5 | 5 | 5 | 5 | 5 | 5 | 5 |  |  | 
6 | C=CCn1c(=O)c(C(=O)C2=C(O)CCCC2=O)nc2ccccc21 [Compound I-30] | 5 | 5 | 5 | 5 | 5 | 5 | 5 | 4 |  |  | 
7 | Cn1c(=O)c(C(=O)C2=C(O)C3CCC(C3)C2=O)nc2ccccc21 (stereo not shown) [I-5] |  |  |  | 5 | 5 | 5 | 5 | 4 |  |  | 
8 | O=C1CCCC(O)=C1C(=O)c1nc2ccccc2n(C2CCCC2)c1=O [I-21] |  |  |  | 5 | 5 | 5 | 5 | 5 |  |  | 
9 | CSCn1c(=O)c(C(=O)C2=C(O)C3CCC(C3)C2=O)nc2ccccc21 (stereo not shown) [I-71] |  |  |  | 5 | 5 | 5 | 5 | 5 |  |  | 
10 | O=C1CCCC(O)=C1C(=O)c1nc2ccccc2n(-c2ncccn2)c1=O [I-195] |  |  |  | 5 | 5 | 5 | 5 | 5 |  |  | 
11 | CSc1cccc(-n2c(=O)c(C(=O)C3=C(O)CCCC3=O)nc3ccccc32)c1 [II-121] | 4 | 5 | 5 |  |  |  |  |  | 4 | 4 | 4
12 | CS(=O)(=O)c1cccc(-n2c(=O)c(C(=O)C3=C(O)CCCC3=O)nc3ccccc32)c1 [II-124] | 4 | 5 | 5 |  |  |  |  |  | 4 | 5 | 5
13 | COc1ccc(-n2c(=O)c(C(=O)C3=C(O)CCCC3=O)nc3ccccc32)cc1F [II-178] | 4 | 5 | 5 |  |  |  |  |  | 5 | 5 | 5
14 | COc1ccc(-n2c(=O)c(C(=O)C3=C(O)CCCC3=O)nc3cccc(Cl)c32)cc1 [II-197] | 5 | 5 | 5 |  |  |  |  |  | 4 | 5 | 5
15 | CN(C)c1ccc(-n2c(=O)c(C(=O)C3=C(O)CCCC3=O)nc3ccccc32)cc1 [II-210] | 5 | 5 | 5 |  |  |  |  |  | 5 | 5 | 4
16 | Cc1cc(-n2c(=O)c(C(=O)C3=C(O)CCCC3=O)nc3ccccc32)ccc1F [II-214] | 5 | 5 | 5 |  |  |  |  |  | 5 | 5 | 5
17 | COc1cc(-n2c(=O)c(C(=O)C3=C(O)CCCC3=O)nc3c(F)cccc32)cc(OC)c1OC [II-234] |  |  |  | 5 | 5 |  |  |  | 5 | 5 | 4
18 | COc1ccc2nc(C(=O)C3=C(O)CCCC3=O)c(=O)n(-c3cc(F)c(OC)c(F)c3)c2c1 [II-255] | 5 | 5 | 5 |  |  |  |  |  | 4 | 5 | 5
19 | COc1cccc2nc(C(=O)C3=C(O)CCCC3=O)c(=O)n(-c3ccccc3)c12 [II-256] | 5 | 5 | 5 |  |  |  |  |  | 4 | 5 | 5
20 | COc1ccc(-n2c(=O)c(C(=O)C3=C(O)CCCC3=O)nc3cccc(OC)c32)cc1 [II-257] | 5 | 5 | 5 |  |  |  |  |  | 4 | 5 | 5
21 | O=C1CCCC(O)=C1C(=O)c1nc2cccnc2n(CCc2ccccc2)c1=O [III-235] | 5 | 5 | 5 |  |  |  |  |  | 5 | 5 | 5
